≈ marks a conversion by molar mass, not a printed value. Read-outs that look alike come from different tables or passages of the source.
Columns and labels:
Test in all cases: Cell proliferation MTT assay
Type in all cases: cell-based
[1] = system: BJ (normal human skin fibroblasts); details: 96 h; for IC50: Homo sapiens, Skin fibroblast, MTT, mean ± SD, read-out: IC50, antiproliferative activity, BJ
Protocol: (§1) Normal human skin fibroblasts (BJ), human hepatocellular carcinoma (HepG2) and human breast adenocarcinoma (MCF-7) were obtained from American Type Culture Collection (ATCC, England, UK). The cells were cultured in Eagle’s minimum essential medium (EMEM, ATCC) supplemented with 10 % fetal bovine serum (FBS, PAA Laboratories), 100 U/mL penicillin and 100 μg/mL streptomycin (Sigma-Aldrich). In the case of the MCF-7 cell line, the culture medium was additionally supplemented with 0.01 μg/mL of human recombinant insulin (Sigma-Aldrich). The cells were grown in 75-cm^2 flasks and maintained at 37 °C in a humidified atmosphere of 5 % CO2 and 95 % air.
(§2) In order to evaluate cell proliferation, the cells were seeded in flat-bottom 96-well plates in 100 μL of a complete growth medium at a concentration of 2 × 10^3 cells/well (BJ), 1.5 × 10^4 cells/well (HepG2) and 2.5 × 10^4 cells/well (MCF-7) and incubated for 24 h at 37 °C in a humidified atmosphere of 5 % CO2. Before drug exposure, the synthesized compounds (1–10) were dissolved in DMSO and then diluted in a complete culture medium supplemented with 10 % FBS. Subsequently, the growth medium was gently removed and the cells were exposed to 100 μL of serial dilutions of the investigated compounds at concentrations ranging from 0.05 to 200 μg/mL. Untreated cells were used as negative controls, and different concentrations of DMSO were used as the solvent control. After 96-h incubation at 37 °C in a humidified atmosphere of 5 % CO2, cell proliferation was assessed using the MTT test as described previously (Cytotoxicity assay). The MTT assay was repeated in three independent experiments in quadruplicates. The half-maximal inhibitory concentration (IC50) was defined as the compound concentration (μg/mL) required to inhibit cell proliferation to 50 %.
(§3) The results of the in vitro cell culture experiments were presented as mean values ± standard deviation (SD) or as mean values ± standard error of the mean (SEM). The data were analyzed using one-way ANOVA test followed by Dunnett’s test. Differences were considered as significant with p < 0.01 (GraphPad Prism 5, Version 5.04 Software). The values of CC50 and IC50 were calculated via 4-parameter nonlinear regression analyses using GraphPad Prism 5, version 5.04.

[2] = system: HepG2 (human hepatocellular carcinoma); details: 96 h; for IC50: Homo sapiens, HepG2, MTT, read-out: IC50, antiproliferative activity, HepG2
Protocol: as §1, §2, §3

[3] = system: MCF-7 (human breast adenocarcinoma); details: MCF7, 96 h, read-out: IC50, antiproliferative activity, MCF-7
Protocol: as §1, §2, §3

[4] = 10 μg/mL, proliferation reduced to

IC50 ([2]; mean ± SD) [µg/mL] | IC50 ([2]; same value in µM) [µM] | IC50 ([3]; mean ± SD) [µg/mL] | IC50 ([3]; same value in µM) [µM] | Compound | IC50 [1] [µg/mL] | cell proliferation compared to the control, BJ [1, 4] [%] | cell proliferation compared to the control, HepG2 [2, 4] [%]
2.09 | 6.12 | 8.63 | 25.3 | O=C(NNC(=S)Nc1ccc(Cl)cc1Cl)c1ccccn1 [Compound 4, 4-(2,4-Dichlorophenyl)-1-(pyridin-2-yl)carbonylthiosemicarbazide] | 1.86 ± 0.44 (≈ 5.45 µM) | – | –
2.71 ± 0.23 | – | 14.8 ± 1.03 | – | O=C(NNC(=S)Nc1ccccc1Cl)c1ccccn1 [Compound 2, 4-(2-Chlorophenyl)-1-(pyridin-2-yl)carbonylthiosemicarbazide] | 3.06 ± 0.46 (≈ 9.97 µM) | 32 | 18.9
